Results: patent US20200181284A1, “EPIGENETIC INHIBITORS FOR SENSITIZING HEMATOLOGIC OR OTHER MALIGNANCIES TO GLUCOCORTICOID THERAPY” (UNIVERSITY OF SOUTHERN CALIFORNIA, priority 2017, published 2020)

Tested on: interaction between HP1γ and G9a
Experiment: Co-immunoprecipitation of HA-hG9a with HP1γ in Cos-7 cells
Assay type: cell-based, African green monkey
Conditions: 2 μM, 24 h
Protocol: Cos-7 or A549 cells were seeded on 10-cm dishes the day before transfection. Cells were transiently transfected (where indicated) using Lipofectamine 2000 (Invitrogen) with 5 μg each of the indicated plasmids according to the manufacturer's protocol. At 48 h after transfection, cells were treated (or not) with dex for the indicated time period, and cell extracts were prepared in RIPA buffer (50 mM Tris-HCl, pH 8, 150 mM NaCl, 1 mM EDTA, 1% NP-40 and 0.25% deoxycholate) supplemented with protease inhibitor tablets (Roche Molecular Biochemicals) and phosphatase inhibitors (1 mM NaF, 1 mM Na3VO4 and 1 mM β-glycerophosphate). Protein extracts were incubated with 1 μg of the indicated primary antibodies overnight at 4° C. with shaking. Protein A/G Plus Agarose (Santa Cruz sc-2003) beads were added and the mixture was incubated 2 hr at 4° C. The immunoprecipitates were separated on SDS-PAGE. […] In immunoprecipitation experiments 3% of the input of each sample was analyzed by immunoblot using the antibodies listed. […]

SMILES: COc1cc2c(Nc3ccc(NC(=O)c4ccccc4)cc3)ncnc2cc1OCCCN1CCOCC1 [ZM447439, N-[4-[[6-methoxy-7-(3-morpholin-4-ylpropoxy)quinazolin-4-yl]amino]phenyl]benzamide]
- interaction between HP1γ and G9a: increased
